Data as given in patent publication US20250270216A1, “ANTI-INFECTIVE AGENTS” (UNIVERSITY OF DUNDEE, priority 2022, published 2025).

Assays:
[1] = target: T1, Human lysyl tRNA Synthetase (KRS) (Homo sapiens, UniProt Q15046); assay: In vitro inhibition of human lysyl tRNA synthetase (KRS), Biomol green phosphate detection; format: biochemical; conditions: 3.5 μM ATP, 6 μM L-Lysine, 5 h room temperature; read-out: Hs KRS pIC50 (converted)
T1 construct: His tag with PreScission site (His PP pET15b); made in house; host or cells: E. coli BL21 (DE3)
T1 sequence (Q15046 whole entry): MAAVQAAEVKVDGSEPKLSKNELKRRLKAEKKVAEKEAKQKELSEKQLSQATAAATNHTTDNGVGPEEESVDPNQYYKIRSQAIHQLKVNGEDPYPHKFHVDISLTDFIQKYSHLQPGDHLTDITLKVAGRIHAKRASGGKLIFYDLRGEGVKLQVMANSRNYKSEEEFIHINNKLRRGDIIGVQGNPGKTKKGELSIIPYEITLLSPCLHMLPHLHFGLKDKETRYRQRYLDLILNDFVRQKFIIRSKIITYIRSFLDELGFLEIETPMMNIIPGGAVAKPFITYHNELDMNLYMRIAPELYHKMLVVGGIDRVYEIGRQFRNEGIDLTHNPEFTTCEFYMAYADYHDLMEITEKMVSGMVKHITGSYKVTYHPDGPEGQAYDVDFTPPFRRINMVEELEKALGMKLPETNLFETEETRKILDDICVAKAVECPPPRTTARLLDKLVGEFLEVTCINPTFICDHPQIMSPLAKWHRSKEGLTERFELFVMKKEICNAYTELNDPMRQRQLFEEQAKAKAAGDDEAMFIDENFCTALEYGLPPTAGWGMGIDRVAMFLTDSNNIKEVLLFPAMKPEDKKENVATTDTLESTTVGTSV
Protocol: The gene coding for Human KRS, codon optimized for expression in E. coli, was obtained from Genscript and cloned into a His PP pET15b vector using Nde1 and Xho1 restriction sites. The resulting vector was used to transform BL21 (DE3) competent cells for protein expression. A 120 ml overnight culture was set up and grown at 37° C. 200 rpm for 16 h and used the next day to inoculate 6 litres of Autoinduction+AMP medium. This culture was grown at 37° C. for 4 h then 20° C. for 20 h. The cells were harvested by centrifugation at 3,500 g for 30 min then stored at −20° C. The resulting cell pellet was 50 g. Lysis buffer (150 ml, 25 mM HEPES/500 mM NaCl/20 mM imidazole/2 mM DTT/10% glycerol pH 7.5/protease inhibitor tablets/DNAase) was added and the pellets for defrosted at room temperature for approximately 10 min. The slurry was then passed through a Cell Disrupter (Constant Systems) set at […] to lyse the cells. The sample was then centrifuged at 40,000 g for 20 min. The supernatant was then filtered using syringe filters to 0.45 μm. The supernatant was loaded onto a 5 ml HiTrap Ni HP column that had been equilibrated with BufferA (25 mM HEPES/500 mM NaCl/20 mM Imidazole/2 mM DTT/10% Glycerol pH 7.5) at 5 ml/min using an AKTA Pure system. Once loaded the column was washed with 10 column volumes buffer A. A 5% step of Buffer B (25 mM HEPES/500 mM NaCl/500 mM Imidazole/2 mM DTT/10% Glycerol pH 7.5) was then used to wash off His rich contaminating proteins. A gradient of 5-50% B was used to elute the protein. Approximately 55 mg of protein was present in the fractions containing the HsKRS protein. The sample was then passed through a 0.2 μm filter, before loading onto a XK26/60 Superdex 200 column equilibrated with Buffer C (25 mM HEPES/150 mM NaCl/2 mM DTT/10% glycerol pH 7.0) using an AKTA Pure system at 4° C. at 2 ml/min. The sample was then dialyzed into 25 mM HEPES/500 mM NaCl//2 mM DTT/10% glycerol/0.25% azide pH 7.0. The protein was concentrated to 1 mg/ml and frozen at −80° C. Approximately 23 mg of protein was produced.
Assay Method for Measurement of In Vitro Inhibition of Human lysyl tRNA Synthetase (KRS)
Potency of compounds was determined in 10 points dose-response inhibition curves. Compounds were transferred into 384-well clear bottom plates (Greiner Bio-One, 781101) using an Echo 550 acoustic dispenser (Labcyte). Using an automatic liquid dispenser, 50 μL reaction mixes were prepared by adding 25 μL of substrate mix into all wells followed by the addition of 25 μL enzyme mix into all wells (final reaction: 30 mM Tris-HCl, pH 8.0, 40 mM MgCl2, 140 mM NaCl, 30 mM KCl, 0.01% Brij-35, 1 mM DTT, 3.5 μM ATP, 6 μM L-Lysine, 200 nM […] and 0.5 U/mL Pyrophosphatase). Complete inhibition control reactions were performed in the presence of 100 μM of control compoundand the plates were incubated at room temperature for 5 h. Reactions were stopped by the addition of Biomol green (50 μL: Enzo Life Sciences) with the amount of free phosphate detected by measuring absorbance (650 nm) after 20 min further incubation (BMG Pherastar plate reader). Counter screen assays to eliminate direct inhibition of pyrophsphatase were performed using 0.5 U/mL pyrophosphatase and 3 μM pyrophosphate as substrate in the same assay buffer (30 mM Tris-HCl, pH 8.0, 40 mM MgCl2, 140 mM NaCl, 30 mM KCl, 0.01% Brij-35, 1 mM DTT) for 5 hours at room temperature. Biomol green was added and incubated for 20 min before detection as above. Samples were run in duplicate and data was processed and analysed using ActivityBase (IDBS).

Cryptosporidium parvum = assay: In vitro inhibition of Cryptosporidium (method of Bessoff et al.); format: cell-based; conditions: read-out: C. parvum PEC50 (converted)
From the text: Assay Method for Measurement of In Vitro Inhibition of Cryptosporidium
These experiments were run in accordance with the method of Besssoff et. al. Antimicrob. Agents Chemother. 2013, 57:1804-1814. Results from these experiments are provided in the Experimental Results hereinafter.

[2] = system: Hep G2 (Human hepatocyte carcinoma); assay: In vitro inhibition of HepG2 cells (cytotoxicity); format: cell-based; conditions: read-out: Hs HepG2 PEC50 (converted)
From the text: Assay Method for Measurement of In Vitro Inhibition of HepG2 Cells (Cytotoxicity)
These experiments were run in accordance with the method of Mersch-Sundermann V et. al. Toxicology 2004, 198:329-340

Compound | IC50 [1] [µM] | EC50 (Cryptosporidium parvum) [µM] | EC50 [2] [µM]
Nc1nc2c(c(C(F)(F)F)n1)C(=O)N(CC1CCCC3(CC3)C1)C2 (racemic) [Compound 4, 2-amino-6-(spiro[2.5]octan-5-ylmethyl)-4-(trifluoromethyl)-6,7-dihydro-5H-pyrrolo[3,4-d]pyrimidin-5-one] | > 100 | 0.158 | 20
Nc1nc2c(c(C(F)(F)F)n1)C(=O)N(C[C@@H]1CCC[C@H](C(F)(F)F)C1)C2 [Compound 1, 2-amino-4-(trifluoromethyl)-6-(((1R,3S)-3-(trifluoromethyl)cyclohexyl)methyl)-6,7-dihydro-5H-pyrrolo[3,4-d]pyrimidin-5-one] | 20 | 0.0316 | 25.1
Cc1nc(N)nc2c1C(=O)N(C[C@@H]1CCC[C@H](C(F)(F)F)C1)C2 [Compound 2, 2-amino-4-methyl-6-(((1R,3S)-3-(trifluoromethyl)cyclohexyl)methyl)-6,7-dihydro-5H-pyrrolo[3,4-d]pyrimidin-5-one] | 20 | 0.02 | 12.6
Nc1nc2c(c(C(F)F)n1)C(=O)N(C[C@@H]1CCC[C@H](C(F)(F)F)C1)C2 [Compound 3, 2-amino-4-(difluoromethyl)-6-(((1R,3S)-3-(trifluoromethyl)cyclohexyl)methyl)-6,7-dihydro-5H-pyrrolo[3,4-d]pyrimidin-5-one] | > 100 | 0.0251 | 25.1
